Measurements taken from US4546176A, “7-Carboxymethoxyphenylacetamido-3-cephem derivatives and antibacterial preparations containing the same” (Eisai Co., Ltd., priority 1982, dated 1985).
≈ marks a conversion by molar mass, not a printed value.

How the values were obtained:
[1] = Solubility in water; format: physicochemical; details: in distilled water at 25° C.
[2] = test system: Staph. aureus 209-P; assay: Antibacterial activities (MIC), Staph. aureus 209-P; format: cell-based; details: Staphylococcus aureus
Excerpt: (§1) (1) Antibacterial activities (MIC):

[3] = test system: Escher. coli NIHJ; assay: Antibacterial activities (MIC), Escher. coli NIHJ; format: cell-based; details: Escherichia coli
Excerpt: as §1

[4] = test system: Kleb. pneumoniae EK-6; assay: Antibacterial activities (MIC), Kleb. pneumoniae EK-6; format: cell-based; details: Klebsiella pneumoniae, EK6
Excerpt: as §1

[5] = test system: Proteus morganii EP-14; assay: Antibacterial activities (MIC), Proteus morganii EP-14; format: cell-based; details: Morganella morganii, EP14
Excerpt: as §1

[6] = test system: Pseud. aeruginosa EP-01; assay: Antibacterial activities (MIC), Pseud. aeruginosa EP-01; format: cell-based; details: Pseudomonas aeruginosa, EP01
Excerpt: as §1

[7] = test system: Ser. marcescens ES-75; assay: Antibacterial activities (MIC), Ser. marcescens ES-75; format: cell-based; details: Serratia marcescens, ES75
Excerpt: as §1

[8] = Urinary excretion rate in mice; format: in vivo, ICR male mice; details: mouse, sc, 20 mg/kg subcutaneous, urine up to 6 hours, bioassay
Experimental: ICR male mice (body weight: 20-30 g) were used. Each compound was dissolved in an M/15 phosphate buffer (pH 7.0) and administered in an amount of 20 mg/kg by the subcutaneous route. Urine was collected up to 6 hours after the administration. The concentration of the compound was determined by the bioassey technique (the agar-well method) using Pseudomonas aeruginosa as a test microorganism. On the basis of the thus-determined concentration, its excreted amount was obtained. The urinary excretion rate was then calculated from the excreted amount based on the amount administered.

[9] = Acute toxicity LD50 (mouse, oral); details: in vivo
Excerpt: The acute toxicity values [LD50 (mouse, oral)] of the following compounds were each 4 g/kg or greater;

| solubility [1] [mg/mL] | MIC [2] [µg/mL] | MIC [3] [µg/mL] | MIC [4] [µg/mL] | MIC [5] [µg/mL] | MIC [6] [µg/mL] | MIC [7] [µg/mL] | dose excreted at 6 h [8] [%] | Compound | LD50 [9] [mg/kg] |
| --- | --- | --- | --- | --- | --- | --- | --- | --- | --- |
| ≥ 200 |  |  |  |  |  |  |  | CC(=O)OCC1=C(C(=O)O)N2C(=O)[C@@H](NC(=O)[C@H](NC(=O)c3coc4cc(O)c(O)cc4c3=O)c3ccc(OCC(=O)O)cc3)[C@H]2SC1 [Example 2] |  |
| ≥ 300 | 50 | 0.8 | ≤ 0.05 | 1.56 | 0.1 | 0.2 | 20 | O=C(O)COc1ccc([C@@H](NC(=O)c2coc3cc(O)c(O)cc3c2=O)C(=O)N[C@@H]2C(=O)N3C(C(=O)O)=C(CSc4nnnn4CC(=O)O)CS[C@H]23)cc1 [Example 8, Trisodium 7β-[D-2-(4-carboxymethoxyphenyl)-2-(6,7-dihydroxy-4-oxo-4H-1-benzopyran-3-carboxamido)-acetamido]-3-(1-carboxymethyl-5-tetrazolyl)thiomethyl-3-cephem-4-carboxylate] |  |
| ≥ 300 | 25 | 0.8 | ≤ 0.05 | 25 | 0.1 | 0.8 | 40 | O=C(O)COc1ccc([C@@H](NC(=O)c2coc3cc(O)c(O)cc3c2=O)C(=O)N[C@@H]2C(=O)N3C(C(=O)[O-])=C(C[n+]4ccccc4)CS[C@H]23)cc1 [Example 44, Sodium 7β-[D-2-(4-carboxymethoxyphenyl)-2-(6,7-dihydroxy-4-oxo-4H-1-benzopyran-3-carboxamido)-acetamido]-3-pyridiniummethyl-3-cephem-4-carboxylate] |  |
| ≥ 300 | 25 | 0.8 | ≤ 0.05 | 6.25 | 0.1 | 0.8 | 38 | NC(=O)c1cc[n+](CC2=C(C(=O)[O-])N3C(=O)[C@@H](NC(=O)[C@H](NC(=O)c4coc5cc(O)c(O)cc5c4=O)c4ccc(OCC(=O)O)cc4)[C@H]3SC2)cc1 [Example 45, Sodium 7β-[D-2-(4-carboxymethoxyphenyl)-2-(6,7-dihydroxy-4-oxo-4H-1-benzopyran-3-carboxamido)-acetamido]-3-(4-carbamoylpyridinium)methyl-3-cephem-4-carboxylate] |  |
| ≥ 300 | 50 | 0.4 | ≤ 0.05 | 25 | 0.4 | 0.8 | 62 | O=C(O)COc1ccc([C@@H](NC(=O)c2coc3cc(O)c(O)cc3c2=O)C(=O)N[C@@H]2C(=O)N3C(C(=O)[O-])=C(C[n+]4ccc(CCS(=O)(=O)O)cc4)CS[C@H]23)cc1 [Example 46, Disodium 7β-[D-2-(4-carboxymethoxyphenyl)-2-(6,7-dihydroxy-4-oxo-4H-1-benzopyran-3-carboxamido)-acetamido]-3-[4-(2-sulfoethyl)pyridinium]methyl-3-cephem-4-carboxylate] |  |

The remaining lines, values behind:

| Compound | solubility [1] [mg/mL] | MIC [2] [µg/mL] | MIC [3] [µg/mL] | MIC [4] [µg/mL] | MIC [5] [µg/mL] | MIC [6] [µg/mL] | MIC [7] [µg/mL] | dose excreted at 6 h [8] [%] | LD50 [9] [mg/kg] |
| --- | --- | --- | --- | --- | --- | --- | --- | --- | --- |
| Cn1nnnc1SCC1=C(C(=O)O)N2C(=O)[C@@H](NC(=O)[C@H](NC(=O)c3coc4cc(O)c(O)cc4c3=O)c3ccc(OCC(=O)O)cc3)[C@H]2SC1 [Example 4, Disodium 7β-[D-2-(4-carboxymethoxyphenyl)-2-(6,7-dihydroxy-4-oxo-4H-1-benzopyran-3-carboxamido)-acetamido]-3-(1-methyl-5-tetrazolyl)thiomethyl-3-cephem-4-carboxylate] | ≥ 200 | 6.25 | 0.8 | ≤ 0.05 | 0.8 | ≤ 0.05 | 0.2 |  |  |
| CCn1cc(C(=O)NC(C(=O)NC2C(=O)N3C(C(=O)O)=C(CSc4nnnn4C)CSC23)c2ccc(OCC(=O)O)cc2)c(=O)c2cc(OC(C)=O)c(OC(C)=O)cc21 (stereo not drawn) [Example 11] |  | 12.5 (≈ 14.7 µM) | 0.2 (≈ 0.235 µM) | ≤ 0.05 | 0.4 (≈ 0.47 µM) | 0.1 (≈ 0.118 µM) | ≤ 0.05 |  | ≥ 4000 |
| Cc1oc2cc(O)c(O)cc2c(=O)c1C(=O)N[C@@H](C(=O)N[C@@H]1C(=O)N2C(C(=O)O)=C(CSc3nnnn3CC(=O)O)CS[C@H]12)c1ccc(OCC(=O)O)cc1 [Example 15, Trisodium 7β-[D-2-(4-carboxymethoxyphenyl)-2-(6,7-dihydroxy-2-methyl-4-oxo-4H-1-benzopyran-3-carboxamido)acetamido]-3-(1-carboxymethyl-5-tetrazolyl)thiomethyl-3-cephem-4-carboxylate] | ≥ 300 | 100 | 0.2 | ≤ 0.05 | 3.13 | 0.2 | 0.1 | 32 | ≥ 4000 |
| Cc1oc2c(O)c(O)ccc2c(=O)c1C(=O)N[C@@H](C(=O)N[C@@H]1C(=O)N2C(C(=O)O)=C(CSc3nnnn3CC(=O)O)CS[C@H]12)c1ccc(OCC(=O)O)cc1 [Example 27, Trisodium 7β-[D-2-(4-carboxymethoxyphenyl)-2-(7,8-dihydroxy-2-methyl-4-oxo-4H-1-benzopyran-3-carboxamido)acetamido]-3-(1-carboxymethyl-5-tetrazolyl)-thiomethyl-3-cephem-4-carboxylate] |  | 100 | 0.4 | ≤ 0.05 | 6.25 | 0.8 | 0.8 | 30 |  |
| Cc1oc2cc(O)c(O)cc2c(=O)c1C(=O)N[C@@H](C(=O)N[C@@H]1C(=O)N2C(C(=O)[O-])=C(C[n+]3ccccc3)CS[C@H]12)c1ccc(OCC(=O)O)cc1 [Example 40, Sodium 7β-[D-2-(4-carboxymethoxyphenyl)-2-(6,7-dihydroxy-2-methyl-4-oxo-4H-1-benzopyran-3-carboxamido)acetamido]-3-pyridiniummethyl-3-cephem-4-carboxylate] | ≥ 300 | 100 | 0.8 | 0.1 | 12.5 | 0.2 | 0.6 | 39 |  |
| Cc1oc2cc(O)c(O)cc2c(=O)c1C(=O)N[C@@H](C(=O)N[C@@H]1C(=O)N2C(C(=O)[O-])=C(C[n+]3ccc(C(N)=O)cc3)CS[C@H]12)c1ccc(OCC(=O)O)cc1 [Example 41, Sodium 7β-[D-2-(4-carboxymethoxyphenyl)-2-(6,7-dihydroxy-2-methyl-4-oxo-4H-1-benzopyran-3-carboxamido)acetamido]-3-(4-carbamoylpyridinium)-methyl-3-cephem-4-carboxylate] | ≥ 300 | 50 | 0.4 | ≤ 0.05 | 6.25 | 0.2 | 0.4 | 74 |  |
| Cc1oc2cc(O)c(O)cc2c(=O)c1C(=O)N[C@@H](C(=O)N[C@@H]1C(=O)N2C(C(=O)[O-])=C(C[n+]3ccc(CCS(=O)(=O)O)cc3)CS[C@H]12)c1ccc(OCC(=O)O)cc1 [Example 42, Disodium 7β-[D-2-(4-carboxymethoxyphenyl)-2-(6,7-dihydroxy-2-methyl-4-oxo-4H-1-benzopyran-3-carboxamido)acetamido]-3-[4-(2-sulfoethyl)-pyridinium]methyl-3-cephem-4-carboxylate] | ≥ 300 | 100 | 0.2 | ≤ 0.05 | 3.13 | 0.2 | 0.2 | 46 | ≥ 4000 |
| Cc1oc2cc(O)c(O)cc2c(=O)c1C(=O)N[C@@H](C(=O)N[C@@H]1C(=O)N2C(C(=O)[O-])=C(C[n+]3cccc(CC(=O)O)c3)CS[C@H]12)c1ccc(OCC(=O)O)cc1 [Example 43, Disodium 7β-[D-2-(4-carboxymethoxyphenyl)-2-(6,7-dihydroxy-2-methyl-4-oxo-4H-1-benzopyran-3-carboxamido)acetamido]-3-(3-carboxymethylpyridinium)-methyl-3-cephem-4-carboxylate] | ≥ 300 | 100 | 0.8 | ≤ 0.05 | 12.5 | 0.1 | 0.2 | 25 | ≥ 4000 |
| Cc1oc2cc(O)c(O)cc2c(=O)c1C(=O)N[C@@H](C(=O)N[C@@H]1C(=O)N2C(C(=O)[O-])=C(C[n+]3ccc(C(=O)O)cc3)CS[C@H]12)c1ccc(OCC(=O)O)cc1 [Example 55, Disodium 7β-[D-2-(4-carboxymethoxyphenyl)-2-(6,7-dihydroxy-2-methyl-4-oxo-4H-1-benzopyran-3-carboxamido)acetamido]-3-(4-carboxypyridinium)-methyl-3-cephem-4-carboxylate] |  | 100 | 0.4 | ≤ 0.05 | 6.25 | ≤ 0.05 | 0.4 |  | ≥ 4000 |
| Cc1oc2cc(O)c(O)cc2c(=O)c1C(=O)N[C@@H](C(=O)N[C@@H]1C(=O)N2C(C(=O)[O-])=C(C[n+]3ccc(C(N)=O)cc3)CS[C@H]12)c1ccc(OCC(=O)O)cc1 [Example 57, 7β-[D-2-(4-Carboxymethoxyphenyl)-2-(6,7-dihydroxy-2-methyl-4-oxo-4H-1-benzopyran-3-carboxamido)acetamido]-3-(4-carbamoylpyridinium)methyl-3-cephem-4-carboxylate] |  |  |  |  |  |  |  |  | ≥ 4000 |
